Target: T1, full-length human BTK (Homo sapiens, UniProt Q06187)
T1 construct: 2.5× stocks of full-length human BTK (08-080); purchased CarnaBio USA, Inc., Natick, Mass; 08-080
Assay: Assay A: BTK IC50 Enzyme Assay (microfluidic off-chip mobility shift kinase assay)
Type: biochemical
Conditions: full-length human BTK, kinKDR peptide substrate, incubated 90 min at 27 C; read-out: Assay A (Time Dependent BTK Enzyme Assay IC50)
Outline: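 Off-chip microfluidic mobility shift assay with full-length human BTK; phosphorylated and unphosphorylated peptide substrate were separated by charge/mass on a LabChip 3000.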

T1 sequence (Q06187 whole entry): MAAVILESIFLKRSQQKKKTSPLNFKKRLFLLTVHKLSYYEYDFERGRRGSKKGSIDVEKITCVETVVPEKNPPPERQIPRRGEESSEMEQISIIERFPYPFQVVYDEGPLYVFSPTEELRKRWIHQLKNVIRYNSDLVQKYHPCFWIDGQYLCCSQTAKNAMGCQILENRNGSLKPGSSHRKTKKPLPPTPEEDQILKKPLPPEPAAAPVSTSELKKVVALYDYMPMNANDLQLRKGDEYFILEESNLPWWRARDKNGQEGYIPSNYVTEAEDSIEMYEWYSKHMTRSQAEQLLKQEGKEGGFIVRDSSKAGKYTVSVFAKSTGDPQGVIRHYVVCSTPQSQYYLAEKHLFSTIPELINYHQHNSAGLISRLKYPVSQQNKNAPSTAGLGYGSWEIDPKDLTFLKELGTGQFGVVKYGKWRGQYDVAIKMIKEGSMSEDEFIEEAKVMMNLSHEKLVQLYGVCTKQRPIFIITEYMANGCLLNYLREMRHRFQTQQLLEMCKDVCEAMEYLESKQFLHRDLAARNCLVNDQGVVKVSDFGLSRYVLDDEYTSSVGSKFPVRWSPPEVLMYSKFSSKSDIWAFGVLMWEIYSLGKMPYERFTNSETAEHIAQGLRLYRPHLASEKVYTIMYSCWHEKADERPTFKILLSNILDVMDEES

C=CC(=O)N[C@H]1CCN(c2cc(Oc3ccc(C(=O)Nc4ccccc4)cc3)c(C(N)=O)cn2)C1 [Compound 116, (S)-6-(3-acrylamidopyrrolidin-1-yl)-4-(4-(phenylcarbamoyl)phenoxy)nicotinamide]
IC50: 1000 to 5000 nM

C/C=C/C(=O)NC1CCCN(c2cnc(Oc3ccc(Oc4ccccc4)cc3)c(C(N)=O)c2)C1 (centres unmarked) [Compound 213, 3-((E)-But-2-enoylamino)-6′-(4-phenoxy-phenoxy)-3,4,5,6-tetrahydro-2H-[1,3′]bipyridinyl-5′-carboxylic acid amide]
IC50: > 5000 nM

C/C=C/C(=O)N1CCC(Nc2cnc(Oc3ccc(Oc4cccc(F)c4)cc3)c(C(N)=O)c2)C1 (centres unmarked) [Compound 229, 5-[1-((E)-But-2-enoyl)-pyrrolidin-3-ylamino]-2-[4-(3-fluoro-phenoxy)-phenoxy]-nicotinamide]
IC50: 1000 to 5000 nM

CN(C)C/C=C/C(=O)N1CCC(c2ccc(C(N)=O)c(Oc3ccc(Oc4ccccc4)cc3)n2)CC1 [Compound 76, 1′-((E)-4-Dimethylamino-but-2-enoyl)-6-(4-phenoxy-phenoxy)-1′,2′,3′,4′,5′,6′-hexahydro-[2,4′]bipyridinyl-5-carboxylic acid amid]
IC50: < 100 nM

C=CC(=O)NC1CCN(c2cnc(Oc3ccc(Oc4cccc(F)c4)cc3)c(C(N)=O)c2)C1 (centres unmarked) [Compound 219, 5-(3-Acryloylamino-pyrrolidin-1-yl)-2-[4-(3-fluoro-phenoxy)-phenoxy]-nicotinamide]
IC50: 100 to 1000 nM

C/C=C/C(=O)NC1CCCN(c2cnc(Oc3ccc(Oc4cccc(F)c4)cc3)c(C(N)=O)c2)C1 (centres unmarked) [Compound 222, 3-((E)-But-2-enoylamino)-6′-[4-(3-fluoro-phenoxy)-phenoxy]-3,4,5,6-tetrahydro-2H-[1,3′]bipyridinyl-5′-carboxylic acid amide]
IC50: > 5000 nM

C=CC(=O)N1CCC(c2cc(Oc3ccc(NC(=O)c4ccccc4)cc3)c(C(N)=O)cn2)C1 (centres unmarked) [Compound 184, 6-(1-Acryloylpyrrolidin-3-yl)-4-(4-benzamidophenoxy)nicotinamide]
IC50: 1000 to 5000 nM

C=CC(=O)N[C@H]1CCN(c2ccc(C(N)=O)c(Nc3ccc(N4CCCCC4)nc3)n2)C1 [Compound 39, (S)-6-(3-acrylamidopyrrolidin-1-yl)-2-((6-(piperidin-1-yl)pyridin-3-yl)amino)nicotinamide]
IC50: < 100 nM

C=CC(=O)NC1CCN(c2cnc(Oc3ccc(Oc4ccccc4)cc3)c(C(N)=O)c2)CC1 [Compound 197]
IC50: 100 to 1000 nM

C=CC(=O)N1C[C@@H]2C[C@H]1CN2c1cnc(C(N)=O)c(Oc2ccc(Oc3ccccc3)cc2)n1 [Compound 135, 5-((1S,4S)-5-Acryloyl-2,5-diaza-bicyclo[2.2.1]hept-2-yl)-3-(4-phenoxy-phenoxy)-pyrazine-2-carboxylic acid amide]
IC50: 1000 to 5000 nM

C=CC(=O)N[C@H]1CCN(c2ccc(C(N)=O)c(Nc3ccc(N4CC(C)OC(C)C4)c(F)c3)n2)C1 (stereo partly drawn) [Compound 27, 6-((S)-3-Acryloylamino-pyrrolidin-1-yl)-2-[4-(2,6-dimethyl-morpholin-4-yl)-3-fluoro-phenylamino]-nicotinamide]
IC50: < 100 nM

C=CC(=O)N1CCC(c2ccc(C(N)=O)c(Nc3cccnc3)n2)CC1 [Compound 53, 1′-Acryloyl-6-(pyridin-3-ylamino)-1′,2′,3′,4′,5′,6′-hexahydro-[2,4′]bipyridinyl-5-carboxylic acid amide]
IC50: < 100 nM

C=CC(=O)N[C@H]1CCN(c2nc(Nc3ccc(C(=O)NC(C)(C)C)cc3)c(C(N)=O)cc2F)C1 [Compound 5, 6-((S)-3-Acryloylamino-pyrrolidin-1-yl)-2-(4-tert-butylcarbamoyl-phenylamino)-5-fluoro-nicotinamide]
IC50: 100 to 1000 nM

C=CC(=O)NC1CCCN(c2ncc(C(N)=O)c(Oc3ccc(Oc4ccccc4)cc3)n2)C1 (centres unmarked) [Compound 204, 2-(3-acrylamidopiperidin-1-yl)-4-(4-phenoxyphenoxy)pyrimidine-5-carboxamide]
IC50: 1000 to 5000 nM

C=CC(=O)N1CCC(c2cnc(Oc3ccc(Oc4ccccc4)cc3)c(C(N)=O)c2)CC1 [Compound 127, 1′-Acryloyl-6-(4-phenoxy-phenoxy)-1′,2′,3′,4′,5′,6′-hexahydro-[3,4′]bipyridinyl-5-carboxylic acid amide]
IC50: 100 to 1000 nM

C=CC(=O)N[C@H]1CCN(c2cc(Oc3ccc(Oc4ccc(C)cc4)cc3)c(C(N)=O)cn2)C1 [Compound 114, (S)-6-(3-acrylamidopyrrolidin-1-yl)-4-(4-(p-tolyloxy)phenoxy)nicotinamide]
IC50: 100 to 1000 nM

C=CC(=O)N1CCC(c2ccc(C(N)=O)c(Oc3ccc(Oc4ccc(C)cc4)cc3)n2)C1 (centres unmarked) [Compound 81, 6-(1-acryloylpyrrolidin-3-yl)-2-(4-(p-tolyloxy)phenoxy)nicotinamide]
IC50: < 100 nM

C=CC(=O)N1C[C@@H]2CCN(c3ncc(C(N)=O)c(Oc4ccc(Oc5ccccc5)cc4)n3)[C@@H]2C1 [Compound 203, 2-((3aS,6aS)-5-acryloylhexahydropyrrolo[3,4-b]pyrrol-1(2H)-yl)-4-(4-phenoxyphenoxy)pyrimidine-5-carboxamide]
IC50: 100 to 1000 nM

C=CC(=O)N[C@H]1CCN(c2ccc(C(N)=O)c(NCCN3CCOCC3)n2)C1 [Compound 166, 6-((S)-3-Acryloylamino-pyrrolidin-1-yl)-2-(2-morpholin-4-yl-ethylamino)-nicotinamide]
IC50: > 5000 nM

C=CC(=O)NC1CC2(C1)CC(Nc1ncc(C(N)=O)c(Oc3ccc(Oc4ccccc4)cc3)n1)C2 (centres unmarked) [Compound 195, 2-((6-acrylamidospiro[3.3]heptan-2-yl)amino)-4-(4-phenoxyphenoxy)pyrimidine-5-carboxamide]
IC50: 1000 to 5000 nM

C=CC(=O)N[C@H]1CCN(c2ccc(C(N)=O)c(Oc3ccc(NC(=O)c4ccccc4)cc3)n2)C1 [Compound 95, (S)-6-(3-acrylamidopyrrolidin-1-yl)-2-(4-benzamidophenoxy)nicotinamide]
IC50: 100 to 1000 nM

C=CC(=O)N[C@H]1CCN(c2nc(Cl)ccc2C(N)=O)C1 [Compound 163, 2-((S)-3-Acryloylamino-pyrrolidin-1-yl)-6-chloro-nicotinamide]
IC50: > 5000 nM

CN(C)C/C=C/C(=O)N[C@@H]1CCN(c2ncc(C(N)=O)c(N)n2)C1 [Compound 146, 4-Amino-2-[(R)-3-((E)-4-dimethylamino-but-2-enoylamino)-pyrrolidin-1-yl]-pyrimidine-5-carboxylic acid amide]
IC50: > 5000 nM

C=CC(=O)N1CC2CN(c3cnc(Oc4ccc(Oc5ccccc5)cc4)c(C(N)=O)c3)CC2C1 (centres unmarked) [Compound 216, 5-(5-Acryloyl-hexahydro-pyrrolo[3,4-c]pyrrol-2-yl)-2-(4-phenoxy-phenoxy)-nicotinamide]
IC50: 100 to 1000 nM

C=CC(=O)N[C@H]1CCN(c2ccc(C(N)=O)c(Oc3cccnc3)n2)C1 [Compound 92, 6-((S)-3-Acryloylamino-pyrrolidin-1-yl)-2-(pyridin-3-yloxy)-nicotinamide]
IC50: 100 to 1000 nM

C=CC(=O)N[C@H]1CCN(c2ccc(C(N)=O)c(Nc3ccc(C(=O)N4CCOCC4)cc3)n2)C1 [Compound 35, 6-((S)-3-Acryloylamino-pyrrolidin-1-yl)-2-[4-(morpholine-4-carbonyl)-phenylamino]-nicotinamide]
IC50: < 100 nM

C=CC(=O)N1C2CCC1CC(c1ccc(C(N)=O)c(Oc3ccc(Oc4ccccc4)cc3)n1)C2 (centres unmarked) [Compound 71, 6-(8-Acryloyl-8-aza-bicyclo[3.2.1]oct-3-yl)-2-(4-phenoxy-phenoxy)-nicotinamide]
IC50: < 100 nM

C=CC(=O)N[C@H]1CCN(c2ccc(C(N)=O)c(Oc3ccc(Oc4ccc(C)cc4)cc3)n2)C1 [Compound 85, (S)-6-(3-acrylamidopyrrolidin-1-yl)-2-(4-(p-tolyloxy)phenoxy)nicotinamide]
IC50: 100 to 1000 nM

C/C=C/C(=O)NC1CCN(c2cnc(Oc3ccc(Oc4ccccc4)cc3)c(C(N)=O)c2)CC1 [Compound 200, 4-((E)-But-2-enoylamino)-6′-(4-phenoxy-phenoxy)-3,4,5,6-tetrahydro-2H-[1,3′]bipyridinyl-5′-carboxylic acid amide]
IC50: > 5000 nM

C=CC(=O)N1CCC(CNc2ncc(C(N)=O)c(Oc3ccc(Oc4ccccc4)cc3)n2)CC1 [Compound 209, 2-(((1-acryloylpiperidin-4-yl)methyl)amino)-4-(4-phenoxyphenoxy)pyrimidine-5-carboxamide]
IC50: 100 to 1000 nM

C=CC(=O)N1CCC(c2ccc(C(N)=O)c(Oc3ccc(Oc4ccccc4)cc3)n2)CC1 [Compound 64, 6-(1-acryloylpiperidin-4-yl)-2-(4-phenoxyphenoxy)nicotinamide]
IC50: < 100 nM

N#CN1CCC[C@@H](c2cnc(Oc3ccc(Oc4ccc(F)cc4F)cc3)c(C(N)=O)c2)C1 [Compound 249, 5-[(3S)-1-cyanopiperidin-3-yl]-2-[4-(2,4-difluorophenoxy)phenoxy]pyridine-3-carboxamide]
IC50: > 5000 nM

C=CC(=O)NC1CCC(c2cnc(C(N)=O)c(NC(C)=O)c2)CC1 (centres unmarked) [Compound 133]
IC50: 1000 to 5000 nM

CN(C)C/C=C/C(=O)N[C@H]1C[C@@H](Nc2ncc(C(N)=O)c(N)n2)C1 [Compound 162, 4-Amino-2-[3-(4-dimethylamino-but-2-enoylamino)-cyclobutylamino]-pyrimidine-5-carboxylic acid amide]
IC50: > 5000 nM

C=CC(=O)N[C@H]1C[C@H](Nc2ncc(C(N)=O)c(Oc3ccc(Oc4ccccc4)cc3)n2)C1 [Compound 176, 2-(((1r,3r)-3-acrylamidocyclobutyl)amino)-4-(4-phenoxyphenoxy)pyrimidine-5-carboxamide]
IC50: 100 to 1000 nM

C=CC(=O)N1CCC(c2ccc(C(N)=O)c(Nc3ccc(N4C[C@@H](C)O[C@@H](C)C4)nc3)n2)CC1 [Compound 32, 1′-Acryloyl-6-[6-((2R,6S)-2,6-dimethyl-morpholin-4-yl)-pyridin-3-ylamino]-1′,2′,3′,4′,5′,6′-hexahydro-[2,4′]bipyridinyl-5-carboxylic acid amide]
IC50: < 100 nM

C=CC(=O)N1CCCC(Nc2cnc(Oc3ccc(Oc4cccc(F)c4)cc3)c(C(N)=O)c2)C1 (centres unmarked) [Compound 251]
IC50: 100 to 1000 nM

C=CC(=O)N[C@H]1CCN(c2cc(Oc3cnn(Cc4ccccc4)c3)c(C(N)=O)cn2)C1 [Compound 115]
IC50: 100 to 1000 nM
